# Results: the OligoGym collection
# Values joined by “and” are separate entries in the source; they are usually repeats but may differ in a detail not shown here. Identical values can stand only once. After the bases stand the sugars from the 5' end (letter, count) and the backbone: PS all phosphorothioate, else s phosphorothioate and o phosphodiester by linkage. Methylation of C is not given here. e = 2'-O-(2-methoxyethyl) (MOE); k = constrained ethyl (cEt); d = 2'-deoxy (DNA)
# Target: IRF4
# Conditions: ASO, MM.1R, 0.0625 µM
row,Sequence,target mRNA inhibition
1,"CTGATGTGTTCTGGTA (sugars k3 d10 k3, PS)",14% and 36%

# Same assay, conditions: ASO, MM.1R, 0.25 µM
row,Sequence,target mRNA inhibition
1,"CTGATGTGTTCTGGTA (sugars k3 d10 k3, PS)",27% and 41%

# Same assay, conditions: ASO, MM.1R, 1 µM
row,Sequence,target mRNA inhibition
1,"TACTGCTTGAGGTTTT (sugars kkkddddddddkekek, PS)",-8%
2,"AGTGACTTGCATCCAT (sugars kkdddddddddkekek, PS)",27%
3,"ACCTCAGTTTGTGAAG (sugars kdddddddddkekeke, PS)",16%
4,"CTCTATAGTGTTCCAG (sugars k2 d9 e3 k2, PS)",48%
5,"CCAAGCCTAGAGGTGC (sugars k3 d10 k3, PS)",21%
6,"AGTATGAGAAACGGCC (sugars kkddddddddddkeke, PS)",9%
7,"AGTGACTTGCATCCAT (sugars kkdddddddddekeke, PS)",34%
8,"ACAGTGACTTGCATCC (sugars kkdddddddddekeke, PS)",9%
9,"TGAGATGCGGAGGTTC (sugars k3 d10 k3, PS)",33% and 27%
10,"CTGAGAGTAAACTTGG (sugars k3 d10 k3, PS)",-1%
11,"CTGATGTGTTCTGGTA (sugars k3 d10 k3, PS)",45% and 53%
12,"AGTATGAGAAACGGCC (sugars kkkdddddddddkeke, PS)",16%
13,"CGTGTGCTTGCCAAGC (sugars kkddddddddddkeke, PS)",55% and 45%
14,"TAGCCAATTCCTCCAC (sugars k3 d10 k3, PS)",1%

# Same assay, conditions: ASO, MM.1R, 4 µM
row,Sequence,target mRNA inhibition
1,"CTGATGTGTTCTGGTA (sugars k3 d10 k3, PS)",69% and 70%

# Same assay, conditions: ASO, SK-MEL-28, 4 µM
row,Sequence,target mRNA inhibition
1,"GGCTACAGGCACGGCT (sugars k3 d10 k3, PS)",42%
2,"CGCACTAAGTGGGCTC (sugars k3 d10 k3, PS)",14%
3,"TAGGTATACTTAAGCA (sugars k3 d10 k3, PS)",79%
4,"CGTCTTCCAGGTGGGA (sugars k3 d10 k3, PS)",16%
5,"CTGGAGAGAACTCATG (sugars k3 d10 k3, PS)",38%
6,"ACCTACAAAATGCCTC (sugars k3 d10 k3, PS)",42%
7,"AGAAGCACTGGCATTG (sugars k3 d10 k3, PS)",45%
8,"CACCCACACAAGTCTT (sugars k3 d10 k3, PS)",9%
9,"ACGCACCATTCAGACA (sugars k3 d10 k3, PS)",-2%
10,"CCCTACTGGGTACATG (sugars k3 d10 k3, PS)",37%
11,"CTAAAGGAGTGCAGGA (sugars k3 d10 k3, PS)",6%
12,"AATTTTAAGGCCCTGT (sugars k3 d10 k3, PS)",24%
13,"AGGCTAATCAGAATGG (sugars k3 d10 k3, PS)",42%
14,"AAGTGGACCCCATTGC (sugars k3 d10 k3, PS)",31%
15,"CGCGGACGCACGGAGA (sugars k3 d10 k3, PS)",19%
16,"AGACAAGTGCTAGGAT (sugars k3 d10 k3, PS)",56%
17,"CCCAAGTGAGGTCACC (sugars k3 d10 k3, PS)",20%
18,"ATTAAAGGGTAAGCAC (sugars k3 d10 k3, PS)",32%
19,"GAGTACCCAAGACTCC (sugars k3 d10 k3, PS)",25%
20,"ACGCAGAGCCAGTAGG (sugars k3 d10 k3, PS)",50%
21,"GCCGCTGTCGATCTGG (sugars k4 d8 k4, PS)",15%
22,"AGAAAACTCTAACCCT (sugars k3 d10 k3, PS)",25%
23,"TGGCAGTGGAGCTCCA (sugars k3 d10 k3, PS)",46%
24,"GGAAAGAGCTTTGGTG (sugars k3 d10 k3, PS)",12%
25,"TCAAGTAAAGTGATCA (sugars k3 d10 k3, PS)",48%
26,"AGGGATGGAACAGTAA (sugars k3 d10 k3, PS)",47%
27,"GACCACAGTGAAGTCG (sugars k3 d10 k3, PS)",14%
28,"GGATTTCCGGGTGTGG (sugars k3 d10 k3, PS)",61%
29,"CCTGGTCCAGGTTGCT (sugars k3 d10 k3, PS)",26%
